Laboratory results reported in US4992292A, “Tris-hydroxymethyl alkane dicarboxylate extended esters as low calorie fat mimetics” (Nabisco Brands, Inc., priority 1990, dated 1991).

Experiments:
pancreatic lipase = conditions: cited from earlier work
[1] = rats fed ad libitum; cited from earlier work
[2] = in vivo animal feeding study for caloric availability; parameters: species or system Sprague-Dawley rats; conditions: rats, diet of 50% fort and 21% test compound, 14 days; from weight gain and corn oil base line data
Description: This example illustrates how the novel fat mimetics of this invention are screened for caloric availability by a carefully controlled in vivo animal feeding study.
An experimental relationship between total calories ingested and animal body weight gain is established by monitoring the body weight gain associated with consumption of a nutritionally balanced diet containing varying concentrations of a reference substance such as corn oil which has a known caloric availabilty. Correlations between total calories ingested and body weight gain are excellent (r=0.99).
Caloric availability of an unknown substance is evaluated by substituting a specific weight of the unknown substance for the reference substance and observing the body weight gain. The gain in body weight is equated to a total number of calories using the correlation previously established for the reference data. The estimated number of calories ingested are divided by the weight of unknown substance to give the apparent calories per gram for the unknown substance. Generally speaking, in these bioavailability studies, the degree of perianal pelt soiling correlates with reduced bioavailability.
The test animals are six-week-old male Sprague-Dawley rats obtained from the Portage, Michigan facility of the Charles River Laboratories, Inc. After acclimation for 15 days, the test duration is I4 days. […]

[3] = rat, in vivo; cited from earlier work

## CCCCCCCC(=O)OCC(COC(=O)CCCCCCC)(COC(=O)CCCCCCC)COC(=O)CCCCCCC [pentaerythritol tetracaprylate]
Pancreatic lipase
  hydrolysis by the enzyme pancreatic lipase: not attacked, hydrolyzed
[1]
  food consumption versus control animals on a normal diet: consumed more than control animals

## CCCCCCCC/C=C\CCCCCCCC(=O)OCC(C)(COC(=O)CCCCCCC/C=C\CCCCCCCC)COC(=O)CCCCCCC/C=C\CCCCCCCC [Example 1, 1,1,1-Tris hydroxymethylethane trioleate]
[2]
  caloric availability upon being metabolized: about 3.3 kcal/gram

## corn oil
[3]
  caloric availability of reference: 9.0 calories/gram
